From the NIST ThermoML archive (doi:10.1016/j.jct.2012.06.012)
± gives the expanded uncertainty stated by the source.

Experiment: xn = mol fraction of the nth substance listed
Conditions: Liquid, Vibrating tube method

CCCCCCCCCC [decane] + CCO
mass density [kg/m3]
Conditions	x2 = 0.0937	x2 = 0.1011	x2 = 0.4963	x2 = 0.7526	x2 = 0.9014
342.81 K, 1000 kPa	691.26 ± 0.23	691.32 ± 0.23	698.84 ± 0.22	–	–
342.81 K, 2000 kPa	692.32 ± 0.24	692.38 ± 0.24	699.92 ± 0.24	–	–
342.81 K, 3000 kPa	693.37 ± 0.25	693.43 ± 0.25	700.98 ± 0.25	–	–
342.81 K, 4000 kPa	694.4 ± 0.27	694.46 ± 0.27	702.03 ± 0.26	–	–
342.81 K, 5000 kPa	695.42 ± 0.28	695.48 ± 0.28	703.09 ± 0.28	–	–
342.81 K, 6000 kPa	696.42 ± 0.3	696.48 ± 0.3	704.13 ± 0.29	–	–
342.81 K, 7000 kPa	697.41 ± 0.31	697.47 ± 0.31	705.18 ± 0.3	–	–
342.81 K, 8000 kPa	698.4 ± 0.33	698.46 ± 0.33	706.22 ± 0.32	–	–
342.81 K, 9000 kPa	699.37 ± 0.34	699.44 ± 0.34	707.25 ± 0.33	–	–
342.81 K, 10000 kPa	700.35 ± 0.35	700.42 ± 0.35	708.27 ± 0.34	–	–
342.81 K, 11000 kPa	701.32 ± 0.37	701.38 ± 0.37	709.28 ± 0.36	–	–
342.81 K, 12000 kPa	702.28 ± 0.38	702.33 ± 0.38	710.29 ± 0.37	–	–
342.81 K, 13000 kPa	703.21 ± 0.39	703.27 ± 0.39	711.26 ± 0.38	–	–
342.81 K, 14000 kPa	704.14 ± 0.41	704.2 ± 0.41	712.23 ± 0.4	–	–
342.81 K, 15000 kPa	705.06 ± 0.42	705.12 ± 0.42	713.19 ± 0.41	–	–
342.81 K, 16000 kPa	705.95 ± 0.44	706.02 ± 0.44	714.13 ± 0.42	–	–
342.81 K, 17000 kPa	706.83 ± 0.45	706.9 ± 0.45	715.07 ± 0.44	–	–
342.81 K, 18000 kPa	707.7 ± 0.46	707.77 ± 0.46	715.97 ± 0.45	–	–
342.81 K, 19000 kPa	708.56 ± 0.48	708.63 ± 0.48	716.86 ± 0.46	–	–
342.81 K, 20000 kPa	709.39 ± 0.49	709.45 ± 0.49	717.73 ± 0.48	–	–
342.86 K, 1000 kPa	–	–	–	711.77 ± 0.21	726.79 ± 0.21
342.86 K, 2000 kPa	–	–	–	712.88 ± 0.23	727.93 ± 0.22
342.86 K, 3000 kPa	–	–	–	713.97 ± 0.24	729.05 ± 0.23
342.86 K, 4000 kPa	–	–	–	715.06 ± 0.25	730.15 ± 0.24
342.86 K, 5000 kPa	–	–	–	716.15 ± 0.27	731.27 ± 0.25
342.86 K, 6000 kPa	–	–	–	717.23 ± 0.28	732.36 ± 0.27
342.86 K, 7000 kPa	–	–	–	718.31 ± 0.29	733.45 ± 0.28
342.86 K, 8000 kPa	–	–	–	719.38 ± 0.3	734.54 ± 0.29
342.86 K, 9000 kPa	–	–	–	720.44 ± 0.32	735.62 ± 0.3
342.86 K, 10000 kPa	–	–	–	721.49 ± 0.33	736.69 ± 0.31
342.86 K, 11000 kPa	–	–	–	722.54 ± 0.34	737.75 ± 0.33
342.86 K, 12000 kPa	–	–	–	723.57 ± 0.36	738.79 ± 0.34
342.86 K, 13000 kPa	–	–	–	724.58 ± 0.37	739.82 ± 0.35
342.86 K, 14000 kPa	–	–	–	725.59 ± 0.38	740.84 ± 0.36
342.86 K, 15000 kPa	–	–	–	726.57 ± 0.39	741.84 ± 0.37
